Assay results as given in patent US10233157B2, “SIK inhibitor for use in a method of treating an inflammatory and/or immune disorder” (Dana-Farber Cancer Institute, Inc., priority 2012, dated 2019).
Entries after “also recorded” stand apart in the source; their conditions may differ.

Legend:
[1] = test system: AMPK-related kinases; assay type: biochemical; conditions: members of the AMPK subfamily other than SIKs
Description: (§1) Recombinant SIK1, SIK2, SIK3 were expressed as GST-fusion proteins in HEK293 cells and purified on a glutathione-Sepharose column. […] FLAG-CRTC3 was immunoprecipitated using anti-FLAG M2 agarose, washed in kinase buffer (50 mM Tris/HCl pH 7.4, 10 mM Mg acetate, 0.1 mM EGTA, 2 mM DTT) and reactions initiated by adding 4 U/ml recombinant kinase with 0.1 mM ATP (specific activity 3000 cpm/pmol). Phosphorylation of CRTC3 was monitored by autoradiography as well as immunoblotting using phosphospecific antibodies raised against Ser162, Ser329 and Ser370. […] Kinase profiling was performed as previously described (7) and performed by the International Centre for Kinase Profiling (www.kinase-screen.mrc.ac.uk).

[2] = test system: protein kinases that possess a threonine residue at the gatekeeper site (Src, Lck, Yes, BTK, FGF and Ephrin receptors); assay: Kinase profiling, kinases with threonine at the gatekeeper site; assay type: biochemical; conditions: kinase panel; 1 μM KIN112, 0.1 μM HG-9-91-01
Description: as §1

[3] = test system: LPS-stimulated macrophages; assay: Cytokine secretion in TLR-stimulated bone-marrow derived macrophages; assay type: cell-based, mouse
Description: Bone-marrow derived macrophages were differentiated for 7 days in DMEM supplemented with 5 ng/ml recombinant M-CSF (R&D systems), 2 mM glutamine, 10% foetal calf serum, penicillin and streptomycin.
Following stimulation with ligands, the cell culture medium was removed, clarified by centrifugation for 10 min at 14000×g and the concentration of TNFα, IL-6, IL-10, IL-12p40, and RANTES were measured using the Bio-Plex Pro Assay system from Bio-Rad. IFNβ was measured using an ELISA kit from R&D Systems according to the manufacturers' instructions.
RNA was extracted using the RNeasy Micro Kit (Qiagen). cDNA was generated using the iScript cDNA synthesis kit and quantified by qPCR using the SsoFast EvaGreen Supermix (Bio-Rad Laboratories). […] Fold-induction for each gene was reported relative to untreated control cells, which was set to 1. The concentrations of TNFα, IL-6, IL-10, IL-12p40, and RANTES in culture supernatants were measured using the Bio-Plex Pro Assay system from Bio-Rad. Further details in supplementary information.
Following stimulation with ligands, the cell culture medium was removed, clarified by centrifugation for 10 min at 14000×g and the concentration of TNFα, IL-6, IL-10, IL-12p40 and RANTES were measured using the Bio-Plex Pro Assay system from Bio-Rad. IL-1ra and IFNβ were measured using ELISA kits from R&D Systems.

[4] = test system: LPS-stimulated BMDMs; assay: Expression of macrophage markers in LPS-stimulated BMDMs (qPCR); assay type: cell-based, mouse; conditions: for LPS-stimulated expression of SPHK1, LIGHT and Arginase 1: 500 nM
Description: FIGS. 10A to 10E. Inhibition of the LKB1-SIK-CRTC3-IL10 signaling axis drives the expression of markers of regulatory macrophages. (FIG. 10A) Effect of SIK inhibitors on the LPS-stimulated expression of LIGHT, SPHK1, Arg1 and IL-1ra (n=4, mean±SD). […] (FIG. 10C) Elevated expression of markers of regulatory macrophage in LKB1−/− macrophages. BMDMs were generated from LysM-Cre/LKB1+/+ and LysM-Cre/LKB1flox/flox mice and stimulated with 100 ng/ml LPS (mean±SD, n=3). (FIG. 10D) CRTC3 is required for the induction of markers of regulatory macrophages. […] LIGHT and SPHK1 mRNA was measured at 2 h and Arg1 at 8 h post-LPS stimulation (mean±SD, n=4). […] The experiment was carried out as in (FIG. 10D) except that BMDMs were generated from IL-10+/+ and IL-10−/− mice (mean±SD, n=4).
mRNA was extracted from cells using the RNeasy Micro Kit following the manufacturers' instructions (Qiagen). cDNA was generated from 1 μg of total RNA using the iScript cDNA synthesis kit and quantified by qPCR using the SsoFast EvaGreen Supermix on a CFX96 real time system (Bio-Rad Laboratories). The relative expression of each gene was calculated from Ct values using the Pfaffl method (5) and was normalized against the mRNA levels of 18S RNA or GAPDH. Results are reported relative to untreated control cells, which was set to 1. The following primers were used: […]

[5] = test system: CRTC3; assay: IL-10 production in macrophages after siRNA knockdown of CRTC3; assay type: cell-based, mouse; conditions: TLR/LPS-stimulated macrophages
Text: BMDMs were transfected with siRNA oligonucleotides against CRTC1, CRTC2, CRTC3 or non-targetting oligonucleotides as a negative control. […] Gene expression was quantified by qPCR and reported relative to mRNA levels measured in untreated cells (1.0). Knockdown efficiency was monitored by qPCR (mean±SD, n=4).
RNAi in Macrophages RAW264.7 cells or BMDMs were transfected with 100 pmol of SMARTpool siRNA oligos against CREB, CRTC1, CRTC2, CRTC3 or a non-targetting control (Dharmacon) using AMAXA nucleofection. Cells were cultured for 24 h prior to incubation with inhibitors for 1 h followed by stimulation for 1 h with 100 ng/ml LPS. Gene expression was measured by real-time quantitative PCR. For shRNA knockdown of SIKs, lentivirus was generated according to the manufacturer's instructions (Sigma) and RAW264.7 cells were infected using virus harvested 48 and 72 h post-transfection. Infected cells were selected using 3 μg/ml puromycin. QPCR

[6] = test system: Brain-Specific Kinases (BRSKs); assay: Kinase assays, BRSKs; assay type: biochemical; conditions: in vitro

Row | SMILES | inhibition of AMPK-related kinases [1] | inhibition of protein kinases with a threonine residue at the gatekeeper site [2] | IL-10 secretion ([3]; LPS-stimulated macrophages) | pro-inflammatory cytokine secretion ([3]; LPS-stimulated macrophages) | LPS-stimulated expression of SPHK1, LIGHT and Arginase 1 ([4]; IL-10−/− macrophages) | LPS-stimulated expression of SPHK1, LIGHT and Arginase 1 ([4]; cells treated with CRTC3 siRNA) | effect of compound on IL-10 production after siRNA knockdown of CRTC3 [5] | inhibition of BRSKs [6] | IFNβ secretion ([3]; LPS) | IL-10 secretion ([3]; in response to TLR ligands) | IL-12p40 secretion ([3]; in response to TLR ligands) | IL-1ra mRNA ([4]; LPS-stimulated macrophages) | mRNAs of regulatory macrophage markers (arginase-1, SPHK1, LIGHT) ([4]; TLR/LPS-stimulated macrophages) | switch of macrophage programme from classically activated towards regulatory phenotype ([4]; quiescent macrophages)
1 | COc1ccc(N(C(=O)Nc2c(C)cccc2C)c2cc(Nc3ccc(N4CCN(C)CC4)cc3)ncn2)c(OC)c1 [HG-9-91-01, 1-(2,4-dimethoxyphenyl)-3-(2,6-dimethylphenyl)-1-(6-((4-(4-methylpiperazin-1-yl)phenyl)amino)pyrimidin-4-yl)urea] | did not inhibit any other member | inhibited | stimulate IL-10 secretion in a dose dependent manner; also recorded: increased | greatly suppressed | greatly reduced | did not occur | abolishes the effects; also recorded: CRTC3 was required | – | – | – | – | – | – | –
2 | O=C(NCCCNc1nc(Nc2cccc(CN3CCOCC3)c2)ncc1C1CC1)C1CCC1 [MRT67307] | potently inhibits | – | stimulate IL-10 secretion in a dose dependent manner; also recorded: far higher levels of IL-10 | much lower levels of pro-inflammatory cytokines | – | – | completely suppressed the effects | did not inhibit | potently inhibited | high levels of IL-10 | low levels of IL-12p40 | greatly increased | stimulating the production | switched their maturation programme from the classically activated route towards the regulatory phenotype
